From ChEMBL document CHEMBL1201862, “PubChem BioAssay data set” (2004)
Calls of active or inactive are those of the source.

How the values were obtained:
[1] = target: T1, Fatty acid synthase (Homo sapiens, UniProt P49327); test: inhibition of human FAS-TE enzyme activity – biochemical, kinetic fluorescence intensity, dose response (AID 624326); type: functional;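 also: rate of fluorescence rise from hydrolysis of a fluorogenic O-methyl fluorescein ester substrate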
[2] = tested on: Streptococcus sp. 'group A'; test: Streptococcus pyogenes SK(-)GAS viability under kanamycin – luminescence, BacTiterGlo, confirmation, counter-screen for streptokinase expression inhibitor project, dose response (AID 1900); type: functional, organism-based
[3] = target: T1, Fatty acid synthase; test: inhibition of human FAS-TE enzyme activity – biochemical, endpoint fluorescence intensity, uHTS hits, dose response (AID 624327); type: functional;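 also: fluorescence from hydrolysis of an O-methyl fluorescein acyl ester substrate by the enzyme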
[4] = tested on: Streptococcus; test: GAS UMAA2166 growth inhibition – luminescence, BacTiterGlo, counter-screen for streptokinase expression inhibitor project, dose response (AID 1915); type: functional, organism-based;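 also: potency for reduction of bacterial viability or growth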
[5] = tested on: H9c2; test: cells; type: functional, cell-based; conditions: Rattus norvegicus, H9c2, Myocardium;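 also: confirmatory concentration-response retest of ultra-high-throughput screening hits for modulation of myocardial damage; cell death induced by hydrogen peroxide oxidative stress; compound pretreatment for 60 min then peroxide exposure for 2 h; potency is for protecting the cells against peroxide damage rather than for killing them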
[6] = luciferase reporter signal suppression in cells – H4 neuroglioma cells, luminescence, dose response (AID 1990); type: functional, cell-based
[7] = NIH3T3 cell viability loss – ATP luminescence, mouse fibroblasts, counter-screen, dose response (AID 2010); type: functional, cell-based;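 also: cells exposed to compound for about 90 hours before reading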
[8] = NIH-3T3 fibroblast cytotoxicity, dose response, cytotoxicity control, cell-based, fluorescence, Alamar Blue, secondary assay (AID 2327); type: functional;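 also: NIH-3T3 mouse fibroblasts cultured with fluconazole at 8 µg/mL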
[9] = alpha-synuclein stem-loop luciferase translation blockers – H4 neuroglioma cells, luminescence, confirmation (AID 1988); type: functional, cell-based
[10] = Luminescence Cell-Based Dose Response HTS to Identify Inhibitors of 5'UTR Stem-Loop Driven Prion Protein mRNA Translation in H4 Neuroglioblastoma Cells. [Related pubchem assays: 1827 (Project Summary), 1813 (Primary HTS)]; type: functional
[11] = Trypanosoma cruzi growth suppression in host cells – NIH3T3 host cells, beta-gal luminescence, confirmation (AID 2044); type: functional, cell-based;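 also: intracellular parasites grown in NIH/3T3 mouse fibroblasts as host cells; luminescent beta-galactosidase reporter signal from transgenic T. cruzi replicating inside host cells; inhibitors lower the luminescence signal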
[12] = target: T2, RNA-binding protein pos-1 (Caenorhabditis elegans, UniProt G5EF15); test: disruptors of C. elegans POS-1 RNA interaction – biochemical, fluorescence polarization, dose response (AID 1964);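 also: purified POS-1 fused to maltose binding protein made in E. coli; potency of compounds blocking POS-1 binding to fluorescent RNA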
T2 sequence (G5EF15 whole entry): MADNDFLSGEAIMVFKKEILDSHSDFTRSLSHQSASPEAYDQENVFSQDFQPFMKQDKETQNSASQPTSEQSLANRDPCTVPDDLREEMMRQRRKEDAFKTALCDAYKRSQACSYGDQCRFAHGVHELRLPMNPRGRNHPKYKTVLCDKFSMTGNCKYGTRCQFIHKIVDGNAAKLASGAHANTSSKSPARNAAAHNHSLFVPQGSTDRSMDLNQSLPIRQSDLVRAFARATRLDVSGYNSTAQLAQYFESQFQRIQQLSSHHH

[13] = target: T3, Zinc finger protein mex-5 (Caenorhabditis elegans, UniProt Q9XUB2); test: potency of MEX-5 RNA-binding blockers – biochemical, C. elegans, fluorescence polarization, dose response (AID 1960)
T3 sequence (Q9XUB2 whole entry): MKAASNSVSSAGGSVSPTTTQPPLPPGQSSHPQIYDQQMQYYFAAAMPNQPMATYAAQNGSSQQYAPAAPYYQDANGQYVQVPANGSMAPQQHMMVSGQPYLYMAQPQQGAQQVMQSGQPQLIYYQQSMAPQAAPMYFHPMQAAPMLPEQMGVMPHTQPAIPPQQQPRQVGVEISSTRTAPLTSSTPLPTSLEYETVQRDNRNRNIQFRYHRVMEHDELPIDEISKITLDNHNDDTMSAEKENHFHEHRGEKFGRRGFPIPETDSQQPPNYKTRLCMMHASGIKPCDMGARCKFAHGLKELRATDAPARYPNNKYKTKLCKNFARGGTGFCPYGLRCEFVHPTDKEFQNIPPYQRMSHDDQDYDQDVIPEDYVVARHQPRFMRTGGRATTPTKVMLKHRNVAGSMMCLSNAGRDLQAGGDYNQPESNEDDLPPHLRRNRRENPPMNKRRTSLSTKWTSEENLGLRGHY

[14] = blockers of HIV-1 ZM109 envelope-driven cell-cell fusion – HeLa effector, CEM target cells, luciferase, cherry-pick, dose response (AID 652058); type: functional, cell-based;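 also: luciferase signal from HIV-1 Env mediated cell-cell fusion of effector and target cells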
[15] = target: T4, Calpain-2 catalytic subunit (Sus scrofa, UniProt P43367); test: m-calpain protease blockers, concentration series – biochemical, fluorogenic peptide substrate, dose response (AID 1420); type: functional
T4 sequence (P43367 whole entry): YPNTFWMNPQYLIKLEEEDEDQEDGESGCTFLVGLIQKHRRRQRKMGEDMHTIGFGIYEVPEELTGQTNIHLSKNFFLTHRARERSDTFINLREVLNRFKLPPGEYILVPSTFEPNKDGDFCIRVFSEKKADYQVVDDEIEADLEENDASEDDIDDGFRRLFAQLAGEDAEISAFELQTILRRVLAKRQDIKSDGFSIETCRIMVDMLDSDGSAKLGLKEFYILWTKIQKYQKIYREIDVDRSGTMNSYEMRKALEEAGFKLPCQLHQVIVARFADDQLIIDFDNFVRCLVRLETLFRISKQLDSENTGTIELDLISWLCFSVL

[16] = reduction of Shn3 3'UTR-driven luciferase in osteoblasts – cell-based, Clone20 osteoblasts, firefly luciferase, cherry-picked, dose response (AID 624132); type: functional;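 also: firefly luciferase luminescence from reporter carrying the Shn3 3'UTR in osteoblasts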
[17] = non-specific 3'UTR reporter inhibition in Clone20-Shn3RL – cell-based, Renilla luciferase, cherry-picked, counter-screen for Shn3 inhibitor project, dose response (AID 624133); type: functional
[18] = target: T5, Corticotropin-releasing factor receptor 2/Corticotropin-releasing factor-binding protein (Homo sapiens, UniProt P24387+Q13324); test: activators of CRF receptor 2 with binding protein – uHTS hits, confirmation (AID 602473); type: functional; conditions: read-out: EC50_Mean
T5 sequence (Q13324 whole entry): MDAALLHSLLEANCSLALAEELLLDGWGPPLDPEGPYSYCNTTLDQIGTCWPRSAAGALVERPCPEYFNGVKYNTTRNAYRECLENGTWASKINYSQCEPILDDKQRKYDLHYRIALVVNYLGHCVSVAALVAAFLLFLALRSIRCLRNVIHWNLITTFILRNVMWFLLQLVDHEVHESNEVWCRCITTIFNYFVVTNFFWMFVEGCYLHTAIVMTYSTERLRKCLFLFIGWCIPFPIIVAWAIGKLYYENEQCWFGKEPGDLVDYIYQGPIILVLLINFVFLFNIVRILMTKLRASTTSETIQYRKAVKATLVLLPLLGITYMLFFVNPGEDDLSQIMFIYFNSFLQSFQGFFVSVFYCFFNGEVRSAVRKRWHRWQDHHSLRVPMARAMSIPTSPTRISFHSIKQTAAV
T5 sequence (P24387 whole entry): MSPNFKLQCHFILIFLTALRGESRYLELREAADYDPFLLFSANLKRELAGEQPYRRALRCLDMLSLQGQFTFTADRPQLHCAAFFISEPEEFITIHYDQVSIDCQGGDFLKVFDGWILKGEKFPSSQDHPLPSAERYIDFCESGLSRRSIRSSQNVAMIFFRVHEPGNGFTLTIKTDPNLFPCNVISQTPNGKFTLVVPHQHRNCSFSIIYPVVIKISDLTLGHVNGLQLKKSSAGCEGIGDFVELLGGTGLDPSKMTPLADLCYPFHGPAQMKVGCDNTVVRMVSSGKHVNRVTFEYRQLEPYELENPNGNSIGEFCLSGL

[19] = target: T5, Corticotropin-releasing factor receptor 2/Corticotropin-releasing factor-binding protein; test: Dose Response confirmation of uHTS hits for small molecule antagonists of the CRF-binding protein and CRF-R2 receptor complex.; type: functional; conditions: read-out: IC50_Mean

T1 sequence (P49327 whole entry): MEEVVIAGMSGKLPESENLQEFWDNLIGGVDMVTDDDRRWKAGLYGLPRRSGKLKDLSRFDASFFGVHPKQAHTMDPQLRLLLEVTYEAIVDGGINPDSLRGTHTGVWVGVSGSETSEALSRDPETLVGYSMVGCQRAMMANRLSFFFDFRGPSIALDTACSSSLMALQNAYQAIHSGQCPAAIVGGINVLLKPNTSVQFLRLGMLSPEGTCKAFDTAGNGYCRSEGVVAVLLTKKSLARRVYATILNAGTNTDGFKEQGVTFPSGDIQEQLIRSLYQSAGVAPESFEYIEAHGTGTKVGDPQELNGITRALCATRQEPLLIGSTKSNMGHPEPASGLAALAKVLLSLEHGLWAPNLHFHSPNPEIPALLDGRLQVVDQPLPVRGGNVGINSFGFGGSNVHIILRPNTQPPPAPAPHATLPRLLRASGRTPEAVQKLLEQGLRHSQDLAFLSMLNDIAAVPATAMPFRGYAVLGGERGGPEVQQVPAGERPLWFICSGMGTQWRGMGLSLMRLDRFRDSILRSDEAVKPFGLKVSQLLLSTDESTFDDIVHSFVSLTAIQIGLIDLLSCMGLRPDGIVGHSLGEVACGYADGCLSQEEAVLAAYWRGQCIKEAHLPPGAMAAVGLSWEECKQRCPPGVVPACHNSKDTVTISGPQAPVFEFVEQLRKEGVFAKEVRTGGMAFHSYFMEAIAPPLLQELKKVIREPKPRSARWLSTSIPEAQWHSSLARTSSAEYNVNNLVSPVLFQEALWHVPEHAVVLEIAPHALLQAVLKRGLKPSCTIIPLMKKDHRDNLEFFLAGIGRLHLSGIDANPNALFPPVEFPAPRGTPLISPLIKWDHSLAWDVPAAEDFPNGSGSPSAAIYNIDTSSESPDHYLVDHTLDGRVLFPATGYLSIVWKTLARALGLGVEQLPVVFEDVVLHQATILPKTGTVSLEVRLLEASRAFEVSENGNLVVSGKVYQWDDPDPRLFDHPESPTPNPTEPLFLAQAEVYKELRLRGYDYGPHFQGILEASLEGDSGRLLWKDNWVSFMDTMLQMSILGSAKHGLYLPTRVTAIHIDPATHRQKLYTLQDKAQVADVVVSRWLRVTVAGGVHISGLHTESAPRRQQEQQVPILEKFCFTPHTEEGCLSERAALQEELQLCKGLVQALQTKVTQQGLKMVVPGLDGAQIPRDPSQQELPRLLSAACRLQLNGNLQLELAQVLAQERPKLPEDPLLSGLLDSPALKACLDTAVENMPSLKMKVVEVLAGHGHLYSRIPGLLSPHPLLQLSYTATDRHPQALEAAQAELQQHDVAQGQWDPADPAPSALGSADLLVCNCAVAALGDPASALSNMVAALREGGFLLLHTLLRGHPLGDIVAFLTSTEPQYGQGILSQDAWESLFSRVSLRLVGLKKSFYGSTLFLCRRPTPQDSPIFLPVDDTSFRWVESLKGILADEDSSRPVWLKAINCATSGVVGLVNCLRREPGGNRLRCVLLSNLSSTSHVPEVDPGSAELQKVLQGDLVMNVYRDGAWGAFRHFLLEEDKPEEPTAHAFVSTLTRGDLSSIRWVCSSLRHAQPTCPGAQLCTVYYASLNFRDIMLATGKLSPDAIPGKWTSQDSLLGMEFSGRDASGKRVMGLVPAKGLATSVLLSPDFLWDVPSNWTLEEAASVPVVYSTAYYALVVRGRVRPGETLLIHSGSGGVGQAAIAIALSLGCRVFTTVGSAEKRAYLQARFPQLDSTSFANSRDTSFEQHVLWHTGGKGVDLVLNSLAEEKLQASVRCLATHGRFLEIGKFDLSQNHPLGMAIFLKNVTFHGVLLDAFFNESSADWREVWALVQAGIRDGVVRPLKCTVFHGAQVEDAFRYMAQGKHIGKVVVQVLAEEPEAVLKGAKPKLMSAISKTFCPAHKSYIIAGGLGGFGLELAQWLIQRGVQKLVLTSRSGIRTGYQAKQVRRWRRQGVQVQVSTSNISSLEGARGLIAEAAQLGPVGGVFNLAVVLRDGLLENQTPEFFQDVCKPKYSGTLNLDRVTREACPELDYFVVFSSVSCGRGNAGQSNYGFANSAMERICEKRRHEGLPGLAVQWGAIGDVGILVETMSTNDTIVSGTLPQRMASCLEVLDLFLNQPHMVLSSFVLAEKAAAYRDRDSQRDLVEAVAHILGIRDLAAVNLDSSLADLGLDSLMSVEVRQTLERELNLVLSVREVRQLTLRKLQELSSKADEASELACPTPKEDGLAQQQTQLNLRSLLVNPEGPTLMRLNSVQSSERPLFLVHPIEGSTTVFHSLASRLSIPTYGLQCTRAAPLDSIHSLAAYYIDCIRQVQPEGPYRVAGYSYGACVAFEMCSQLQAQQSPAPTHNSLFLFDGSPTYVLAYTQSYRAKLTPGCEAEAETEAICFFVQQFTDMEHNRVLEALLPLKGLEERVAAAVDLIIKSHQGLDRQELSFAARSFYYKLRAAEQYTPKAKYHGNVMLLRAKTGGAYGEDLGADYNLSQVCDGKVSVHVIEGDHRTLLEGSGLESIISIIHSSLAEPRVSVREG

COc1cc([N+](=O)[O-])cc(/C=N/NC(=O)c2cccnc2)c1O
IC50 [1]: 9.94 µM (active) | EC50 [2]: 2.99 µM (active) | IC50 [3]: 9.23 µM (active) | EC50 [4]: 1.76 µM (active)

O=C(Nc1ccccc1)c1nc[nH]c1C(=O)NCCNC(=O)c1[nH]cnc1C(=O)Nc1ccccc1
IC50 [5]: > 79 µM (inactive)

Nc1c(S(=O)(=O)c2cccc(Cl)c2)c2nc3ccccc3nc2n1/N=C/c1ccc(O)c(O)c1
EC50 [6]: 11.4 µM (active) | EC50 [7]: 6.98 µM (active) | EC50 [8]: > 160 µM (inconclusive) | EC50 [9]: 9.66 µM (active) | EC50 [10]: 12.5 µM (active) | EC50 [11]: 3.16 µM (active)

COc1cc(C2C(C#N)=C(N)OC3=C2C(=O)CC(C)(C)C3)cc([N+](=O)[O-])c1O (stereo not drawn)
EC50 [12]: > 300 µM (not active) | EC50 [13]: > 300 µM (not active)

O=C(Oc1cccc(N2C(=O)C3C4c5ccccc5C(c5ccccc54)C3C2=O)c1)c1ccco1 (stereo not drawn)
IC50 [1]: 28.5 µM (inactive) | IC50 [3]: 33.4 µM (inactive)

COC(=O)N/N=C/c1cn(Cc2ccc(F)cc2)c2ccccc12
EC50 [6]: 9.2 µM (active) | EC50 [9]: 7.94 µM (active) | EC50 [10]: 12.8 µM (active)

O=C(CSc1nc(O)c2ccccc2n1)c1ccc(O)cc1O
IC50 [5]: > 79 µM (inactive)

COc1ccc(CCn2c(=O)c3cccnc3n(Cc3ccc([N+](=O)[O-])cc3)c2=O)cc1OC
IC50 [5]: > 79 µM (inactive)

COc1ccc(C2=NOC(Cn3c(Cc4ccc(Cl)cc4)nc4c3c(=O)n(C)c(=O)n4C)C2)cc1 (stereo not drawn)
EC50 [6]: > 120 µM (not active) | EC50 [9]: > 120 µM (not active) | EC50 [10]: > 120 µM (not active)

O=C(CNC(=O)c1[nH]cnc1C(=O)NC(c1ccccc1)c1ccccc1)OCc1ccccc1
IC50 [5]: > 79 µM (inactive)

CC(=O)Nc1nc2ccccc2n1Cc1ccccc1C
EC50 [6]: 14.5 µM (active) | EC50 [9]: 11.5 µM (active) | EC50 [10]: 14.2 µM (active)

Cc1cc(C=C2C(=O)c3ccccc3C2=O)c(C)n1-c1ccc(C(=O)O)cc1
EC50 [12]: > 300 µM (not active) | EC50 [13]: > 300 µM (not active)

CC(OC(=O)c1ccc(NC(=O)CC#N)cc1)C(=O)NCCC1=CCCCC1 (stereo not drawn)
AC50 [14]: 0.439 µM (active)

Cc1ccc(C(=O)NNC(=O)c2ccc3ncccc3c2)cc1
IC50 [15]: 9.29 µM (not active)

O=C(COc1ccc2c3c(c(=O)oc2c1)CCC3)N1CCN(c2ccccc2)CC1
IC50 [1]: 8.68 µM (active) | IC50 [3]: 12.2 µM (active)

COc1ccc(C(=O)NNC2=Nc3cccc4cccc2c34)cc1
EC50 [6]: > 120 µM (not active) | EC50 [9]: > 120 µM (not active) | EC50 [10]: 16.6 µM (active)

C=CCOC(=O)COc1ccc2c3c(c(=O)oc2c1)CCCC3
IC50 [5]: 14.5 µM (active)

CCCc1nc([N+](=O)[O-])c(S(=O)(=O)c2ccccc2)n1CC(C)C
AC50 [16]: 7.39 µM (active) | AC50 [17]: 25.9 µM (active)

COc1ccc2[nH]c3c(c2c1)CCN1C(=O)C(CC(=O)NCCC2=CCCCC2)C[C@H](C(=O)N2CCOCC2)[C@@]31CCC1CCCC1 (stereo partly drawn)
IC50 [1]: 80 µM (inactive) | IC50 [3]: 44.9 µM (inactive)

COCCn1cnc2c(c1=O)c1nc3ccccc3nc1n2/N=C/c1cccc(OC)c1
EC50 [18]: > 53 µM (inactive) | IC50 [5]: 24.5 µM (active) | IC50 [19]: > 47.1 µM (inactive)

Cc1c(Cl)c(=O)oc2cc(OCC(=O)N3CCCC(C)C3)ccc12 (stereo not drawn)
IC50 [1]: 10.3 µM (active) | IC50 [3]: 6.55 µM (active)

CC(C)c1ccc(Nc2c([N+](=O)[O-])c(=O)n(C)c3ccccc23)cc1
IC50 [15]: 3.37 µM (not active)

COc1ccc(OC)c(C2=C/C(=C/c3ccccn3)C(=O)O2)c1
EC50 [12]: > 300 µM (not active) | EC50 [13]: 45.8 µM (active)

CCOc1ccccc1N1CCN(C(=O)CNC(=O)c2ccccc2F)CC1
EC50 [12]: > 300 µM (not active) | EC50 [13]: > 300 µM (not active)

CSCCC(NS(=O)(=O)c1ccccc1)C(=O)OCc1cc(=O)oc2cc(O)ccc12 (stereo not drawn)
IC50 [5]: > 79 µM (inactive)

C[C@H](NC(=O)C1CCN(S(=O)(=O)c2ccccc2)CC1)C(=O)NCc1ccc(Cl)c(Cl)c1
IC50 [1]: 14.5 µM (active) | IC50 [3]: 12.4 µM (active)

c1ccc(Oc2nc(Oc3ccccc3)nc(N3CCOCC3)n2)cc1
IC50 [15]: < 0.4 µM (not active)

COc1cc(OC)cc(C(=O)Nc2ccc3c(c2)COC3=O)c1
IC50 [15]: 5.36 µM (not active)

Cc1ccc(-c2nnc(O)c3ccccc23)cc1S(N)(=O)=O
IC50 [5]: 21.8 µM (active)

Cn1nc(CC(=O)N2CCN(c3ccccc3)CC2)c2ccccc2c1=O
IC50 [15]: 13.1 µM (not active)

CC(C)(C)c1ccc(OCCC(=O)OCC(=O)NC2CCCCC2)cc1
IC50 [1]: 5.35 µM (active) | IC50 [3]: 8.28 µM (active)

O=c1[nH]c(CSc2ncccn2)nc2c1cnn2-c1ccccc1
EC50 [12]: 166 µM (inconclusive) | EC50 [13]: > 300 µM (not active)

COc1ccc(-n2c(=S)[nH]c3cc(C(=O)Nc4ccc(OC)c(OC)c4)ccc3c2=O)cc1
IC50 [15]: 22.5 µM (not active)
